Data: patent US20260091026A1, “METHODS OF TREATING INFLAMMATORY DISEASES” (INTERLINE THERAPEUTICS, INC., priority 2023, published 2026)
Like-named read-outs stand apart in the source and are kept apart here.

Tests used:
RIPK2 (KD)/XIAP (BIR2) = target: T1, RIPK2 (KD)/XIAP (BIR2) (Homo sapiens, UniProt O43353); experiment: RIPK2-XIAP binding competition PPI assay (TR-FRET); conditions: for Emax: read-out: PPI Amax; for IC50: GST-RIPK2 / His-XIAP (BIR2)-avi, 120 min at 23° C.
T1 construct: made in house; host or cells: baculovirus-infected Sf9 cells
Source text: The ability of selected compounds of Formula (I) to inhibit the binding of an His-XIAP (BIR2)-avi fusion protein to a GST-RIPK2 fusion protein was quantified employing the TR-FRET-based competition assay as described in the following paragraphs.
Recombinant fusion protein of N-terminal Glutathione-S-Transferase (GST) and a fragment of human RIPK2 (amino acids 1-310 of accession number 043353), expressed in baculovirus infected Sf9 cells, purified via glutathione affinity chromatography, was used as GST-RIPK2 fusion protein. Recombinant fusion protein of N-terminal 6xHistidine (His), a fragment of human XIAP (amino acids 152-231 of accession number P98170), and C-terminal avi tag, expressed in baculovirus infected Sf9 cells, purified via Nickel NTA affinity chromatography, was used as the His-XIAP (BIR2)-avi fusion protein.
For the assay, a working solution of 1 nM GST-RIPK2, 25 nM His-XIAP (BIR2)-avi, 6 nM Anti-His-XL665 […] (Revvity Catalogue No. 61HISXLB), and 0.5 nM Anti-GST-Tb(Revvity Catalogue No. 61GSTTLB) in 25 mM Tris-HCl 7.5, 0.5 mM ethylene glycol-bis(2-aminoethylether)-N,N,N′,N′-tetraacetic acid (EGTA), 10 mM magnesium chloride (MgCl2), 2.5 mM dithiothreitol (DTT), 0.01% (w/v) bovine serum albumin (BSA), 0.005% (w/v) Pluronic F-127 (Sigma), 0.5 mM sodium ortho-vanadate, 5 mM-Glycerophosphate disodium salt hydrate (BGP) was prepared. 50 nL of a 100-fold concentrated solution of each test compound in DMSO was dispensed via acoustic dispensing into a white low volume 384-well microtiter plate (Perkin Elmer Catalogue No. 6008280). Subsequently, 5 μL of the assay working solution were added.
The resulting mixture was incubated 120 min at 23° C. Subsequently, the amount of complex formed by the GST-RIPK2, XIAP (BIR2)-avi, Anti-His-XL665, and Anti-GST-Tb was evaluated by measurement of the resonance energy transfer from the Tb-cryptate to the XL665. Therefore, the fluorescence emissions at 520 nm and 665 nm after excitation at 337 nm were measured in a TR-FRET reader, e.g. a Pherastar FS(BMG Labtechnologies, Offenburg, Germany) or an Envision (PerkinElmer). The ratio of the emissions at 665 nm and at 520 nm was taken as the measure of the amount of the complex. The data were normalized (assay reaction without inhibitor=0% activity, 50 nM of GSK583=−100% activity).

[1] = test system: THP1-Dual cells, NF-κB pathway (SEAP); experiment: THP-1 Dual cell SEAP assay (L18-MDP stimulated); format: cell-based; conditions: 10 ng/mL L18-MDP, 20-24 h, SEAP readout, read-out: IFNγ THP1 IC50
Experimental: THP1-Dual™ cells (InvivoGen Cat #thpd-nfis) allow simultaneous assessment of the NF-κB pathway, by monitoring the activity of secreted embryonic alkaline phosphatase (SEAP) as well as the IRF pathway, by assessing the activity of a secreted luciferase (Lucia). Cells were cultured according to manufacturers' recommendations. For the assay, cell concentration was adjusted to 7.14×10^5 cells/mL in assay media (RPMI 1640, 2 mM L-Glutamine, 25 mM HEPES, 10% fetal bovine serum (heat-inactivated for 30 min at 56° C.), Pen-Strep (100 U/mL)) and 35 μL of cell suspension (˜25,000 cells) per well were added to a flat bottom 384-well plate (white opaque). Plate was centrifuged at 300 g for 2 min, compounds were added in serial dilution series according to the plate layout (volumes ˜500 nL-0.0152 nL) and plate was incubated at 37° C. in 5% CO2 for 30 min. Using assay media, a L18-MDP stock solution, that results in a final concentration of 10 ng/mL L18-MDP in each well when adding 15 μL to each well, was prepared. 15 μL of L18-MDP stock solution was added to each well, while 15 μL of assay media was added to the negative control wells. Plates were subsequently incubated at 37° C. in 5% CO2 overnight (20-24 h).
For the SEAP assay: without disturbing the cells at the bottom of the well, 15 μL supernatant was transferred to a clear 384-well flat bottom plate and 35 μL QUANTI-Blue Solution per well was added. Following a 2 h incubation at 37° C., the optical density (OD) was measured at 620-655 nm using a microplate reader (PheraStar FS microplate reader with protocol for OD 620-655 nm).
Values of media-only wells were subtracted and % inhibition for each compound concentration relative to the DMSO/L18-MDP-treated controls was calculated. Inhibition values+/−SD were fitted by non-linear regression using Prism software (GraphPad PRISM Software) to calculate IC50 values.

[2] = 50 nM of GSK583 = -100% activity

T1 sequence (O43353 1-310): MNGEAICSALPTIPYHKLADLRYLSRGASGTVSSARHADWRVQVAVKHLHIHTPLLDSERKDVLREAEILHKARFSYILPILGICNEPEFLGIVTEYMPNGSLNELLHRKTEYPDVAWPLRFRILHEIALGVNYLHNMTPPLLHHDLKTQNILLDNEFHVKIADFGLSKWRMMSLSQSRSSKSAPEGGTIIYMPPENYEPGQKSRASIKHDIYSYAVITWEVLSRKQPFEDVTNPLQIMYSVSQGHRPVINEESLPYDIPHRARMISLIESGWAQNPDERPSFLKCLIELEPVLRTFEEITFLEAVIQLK

Compound | Emax (RIPK2 (KD)/XIAP (BIR2); [2]) [%] | IC50 (RIPK2 (KD)/XIAP (BIR2)) [µM] | IC50 ([1]; Homo sapiens) [µM] | PPI Amax (RIPK2 (KD)/XIAP (BIR2); [2]) | IC50 [1] [µM]
COc1cc2ncc(-c3cc(C(=O)NCc4cnn(C)c4)n(C)n3)n2cc1S(=O)(=O)C(C)(C)C [Example 25, 3-(6-(tert-butylsulfonyl)-7-methoxyimidazo[1,2-a]pyridin-3-yl)-1-methyl-N-((1-methyl-1H-pyrazol-4-yl)methyl)-1H-pyrazole-5-carboxamide] | ≤ 30 | > 1 | > 2.5 | – | –
COc1cc2ncc(-c3cc(C(=O)N[C@H](C)c4nccs4)n(C)n3)n2cc1S(=O)(=O)C(C)(C)C [Example 93, (R)-3-(6-(tert-butylsulfonyl)-7-methoxyimidazo[1,2-a]pyridin-3-yl)-1-methyl-N-(1-(thiazol-2-yl)ethyl)-1H-pyrazole-5-carboxamide] | ≥ 80 | 0.01 to 0.1 | 0.1 to 0.5 | – | –
COc1cc2ncc(-c3cc(C(=O)N[C@H](C)c4ccccc4)n(C)n3)n2cc1S(=O)(=O)C(C)(C)C [Example 9, (R)-3-(6-(tert-butylsulfonyl)-7-methoxyimidazo[1,2-a]pyridin-3-yl)-1-methyl-N-(1-phenylethyl)-1H-pyrazole-5-carboxamide] | ≥ 80 | 0.01 to 0.1 | < 0.1 | – | –
COc1cc2ncc(-c3cc(C(=O)NCc4nccn4C)n(C)n3)n2cc1S(=O)(=O)C(C)(C)C [Example 76, 3-(6-(tert-butylsulfonyl)-7-methoxyimidazo[1,2-a]pyridin-3-yl)-1-methyl-N-((1-methyl-1H-imidazol-2-yl)methyl)-1H-pyrazole-5-carboxamide] | ≤ 30 | > 1 | > 2.5 | – | –
COc1cc2ncc(-c3cc(C(=O)N[C@@H](C)c4cn(C)cn4)n(C)n3)n2cc1S(=O)(=O)C(C)(C)C [Example 57, (S)-3-(6-(tert-butylsulfonyl)-7-methoxyimidazo[1,2-a]pyridin-3-yl)-1-methyl-N-(1-(1-methyl-1H-imidazol-4-yl)ethyl)-1H-pyrazole-5-carboxamide] | ≥ 80 | > 1 | > 2.5 | – | –
CCn1nc(-c2cnc3cc(OCCO)c(S(=O)(=O)C(C)(C)C)cn23)cc1C(=O)N[C@@H](C)c1cc(C)ccn1 [Example 135, (S)-3-(6-(tert-butylsulfonyl)-7-(2-hydroxyethoxy)imidazo[1,2-a]pyridin-3-yl)-1-ethyl-N-(1-(4-methylpyridin-2-yl)ethyl)-1H-pyrazole-5-carboxamide] | ≥ 80 | > 1 | > 2.5 | – | –
C[C@@H](NC(=O)c1cc(-c2cnn3cc(OCCO)c(S(=O)(=O)C(C)(C)C)cc23)nn1C)c1ncccc1F [Example 116, (R)-3-(5-(tert-butylsulfonyl)-6-(2-hydroxyethoxy)pyrazolo[1,5-a]pyridin-3-yl)-N-(1-(3-fluoropyridin-2-yl)ethyl)-1-methyl-1H-pyrazole-5-carboxamide] | ≥ 80 | 0.01 to 0.1 | 0.1 to 0.5 | – | –
COc1cc2ncc(-c3cc(C(=O)N[C@H](C)c4ncccc4F)n(CCCO)n3)n2cc1S(=O)(=O)C(C)(C)C [Example 145, (R)-3-(6-(tert-butylsulfonyl)-7-methoxyimidazo[1,2-a]pyridin-3-yl)-N-(1-(3-fluoropyridin-2-yl)ethyl)-1-(3-hydroxypropyl)-1H-pyrazole-5-carboxamide] | ≥ 80 | 0.01 to 0.1 | < 0.1 | – | –
COc1cc2ncc(-c3cc(C(=O)N[C@@H]4C[C@@H]4c4ccccc4)n(C)n3)n2cc1S(=O)(=O)C(C)(C)C (single isomer, unassigned) [Example 31, cis-(1R,2R) or (1S,2S) 3-(6-(tert-butylsulfonyl)-7-methoxyimidazo[1,2-a]pyridin-3-yl)-1-methyl-N-(2-phenylcyclopropyl)-1H-pyrazole-5-carboxamide] | – | > 1 | – | D (Amax of ≤30%) | > 2.5
COc1cc2ncc(-c3cc(C(=O)NCc4noc(C)n4)n(C)n3)n2cc1S(=O)(=O)C(C)(C)C [Example 77, 3-(6-(tert-butylsulfonyl)-7-methoxyimidazo[1,2-a]pyridin-3-yl)-1-methyl-N-((5-methyl-1,2,4-oxadiazol-3-yl)methyl)-1H-pyrazole-5-carboxamide] | ≥ 80 | 0.1 to 1 | > 2.5 | – | –
COCCn1nc(-c2cnc3cc(OC)c(S(=O)(=O)C(C)(C)C)cn23)cc1C(=O)N[C@H](C)c1ccccn1 [Example 105, (R)-3-(6-(tert-butylsulfonyl)-7-methoxyimidazo[1,2-a]pyridin-3-yl)-1-(2-methoxyethyl)-N-(1-(pyridin-2-yl)ethyl)-1H-pyrazole-5-carboxamide] | ≥ 80 | 0.01 to 0.1 | 0.5 to 2.5 | – | –
COc1cc2ncc(-c3cc(C(=O)NCc4cccc(F)n4)n(C)n3)n2cc1S(=O)(=O)C(C)(C)C [Example 52, 3-(6-(tert-butylsulfonyl)-7-methoxyimidazo[1,2-a]pyridin-3-yl)-N-((6-fluoropyridin-2-yl)methyl)-1-methyl-1H-pyrazole-5-carboxamide] | ≥ 80 | 0.1 to 1 | > 2.5 | – | –
COc1cc2ncc(-c3cc(C(=O)NCc4cscn4)n(C)n3)n2cc1S(=O)(=O)C(C)(C)C [Example 85, 3-(6-(tert-butylsulfonyl)-7-methoxyimidazo[1,2-a]pyridin-3-yl)-1-methyl-N-(thiazol-4-ylmethyl)-1H-pyrazole-5-carboxamide] | ≥ 80 | 0.01 to 0.1 | 0.5 to 2.5 | – | –
COc1cc2ncc(-c3cc(C(=O)N[C@H](C)c4ccccn4)n(CC(F)(F)CO)n3)n2cc1S(=O)(=O)C(C)(C)C [Example 106, (R)-3-(6-(tert-butylsulfonyl)-7-methoxyimidazo[1,2-a]pyridin-3-yl)-1-(2,2-difluoro-3-hydroxypropyl)-N-(1-(pyridin-2-yl)ethyl)-1H-pyrazole-5-carboxamide] | ≥ 80 | 0.01 to 0.1 | 0.1 to 0.5 | – | –
COc1cc2ncc(-c3cc(NC(=O)O[C@@H](C)c4ccccc4)n(C)n3)n2cc1S(=O)(=O)C(C)(C)C [Example 150, (S)-1-phenylethyl (3-(6-(tert-butylsulfonyl)-7-methoxyimidazo[1,2-a]pyridin-3-yl)-1-methyl-1H-pyrazol-5-yl)carbamate] | ≥ 80 | 0.1 to 1 | 0.5 to 2.5 | – | –
COc1cc2ncc(-c3cc(C(=O)N[C@H](C)c4ccccn4)n(C(C)C)n3)n2cc1S(=O)(=O)C(C)(C)C [Example 101, (R)-3-(6-(tert-butylsulfonyl)-7-methoxyimidazo[1,2-a]pyridin-3-yl)-1-isopropyl-N-(1-(pyridin-2-yl)ethyl)-1H-pyrazole-5-carboxamide] | ≥ 80 | < 0.01 | < 0.1 | – | –
